Experimental data reported in US20100093017A1, “Metabolically Competent Cell Lines” (CXR Biosciences Limited, priority 2008, published 2010).

How the values were obtained:
[1] = system: antioxidant responsive element (ARE); assay: ARE luciferase reporter induction in adenovirus-P450-transduced ARE32 (MCF-7/ARE) cells; assay type: cell-based, human; details: BHA 20 μM; for ARE reporter induction: 7-EC 100 μM; for induction of the ARE reporter: MCF-7 control cells or in the presence of CYP3A4 or CYP2D6, 7-E 100 μM
Procedure: ARE32 cells were seeded in 24-well plates at 2×10^5 cells per well and cultured overnight. Cells were transduced for 2 h with up to three Adeno-P450s at MOI value of 27 pfu/cell in 0.5 ml of culture medium, after which the medium was removed and replaced with fresh medium. Cells were incubated for an additional 48 h and then were treated with chemicals in serum-free medium for 1 day. Then cells were harvested and lysed. The Luciferase Reporter Assay System (Promega) was used to examine reporter gene activity in cell lysates.
In cell line ARE32, the antioxidant responsive element (ARE), activated by Nrf2, is used to drive a luciferase gene as reporter. A functional ARE is found in the 5′ flanking region of genes encoding NQO1, multiple GST isozymes and many other anticarcinogenic/antioxidant genes. Induction of these genes confers cytoprotection against carcinogenesis and acts to minimize the effects of the toxic insult. Therefore, measurement of ARE induction provides useful information into the particular mechanism of toxicity. […] ARE32 control values are from ARE32 cells without virus infection. ARE32 Transduced values are from ARE32 cells infected with three viruses: Ad3A4.F2A.CPR; Ad2D6(His)CPR; and Ad2A6.F2A.1A1 at a total MOI value of 27.
In further experiments, we examined induction of the ARE reporter in MCF-7 cells expressing CYP3A4 and CPR, CYP2A6 and CPR, CYP2D6 and CPR or CYP2A6 and CYP1A1 by either butylated hydroxyanisole, an antioxidant widely used as a food preservative (BHA-20 μM) or 7-ethoxycoumarin, an antioxidant (7-E-100 μM).
With reference to FIG. 5, expression of the luciferase reporter readout is evaluated in comparison to control MCF-7/ARE cells not expressing P450 transgenes (first bar=1).
Butylated hydroxyanisole (BHA) is an antioxidant used as a food additive (E320). […] We examined induction of the ARE reporter in ARE32 cells expressing CYP3A4 and CPR, CYP2A6 and CPR, CYP2D6 and CPR or CYP2A6 and CYP1A1 by either butylated hydroxyanisole (BHA) at 20 μM or 7-ethoxycoumarin (7-EC) at 100 μM (FIG. 8).

HepG2 cells = system: HepG2 cells
Procedure: CYP3A4 and P450 reductase were delivered into HepG2 cells (Hep-3A4) by adenoviral transduction at Multiplicity of Infection (MOI)=8. […] The adenovirus Ad-mock was used to transduce HepG2 cells at MOI=8 as control (Hep-mock). CYP3A4 activity was determined and compared in Hep-3A4 cells and cryopreserved human hepatocytes.

[2] = system: cryopreserved human hepatocytes
[3] = ARE32 cells expressing CYP3A4 or CYP2D6 (with CPR)

CCOc1ccc2ccc(=O)oc2c1 [7-ethoxycoumarin]
ARE reporter induction ([1]; ARE32 cells expressing CYP2A6): Significant ARE reporter induction
ARE reporter induction [1, 3]: not with CYP3A4 or CYP2D6
induction of the ARE reporter [1]: little or no induction

COc1ccc(O)c(C(C)(C)C)c1 [BHA, butylated hydroxyanisole]
ARE reporter induction ([1]; ARE32 cells expressing CYP2A6): Significant ARE reporter induction
ARE reporter induction [1, 3]: not with CYP3A4 or CYP2D6
induction of the ARE reporter [1]: little or no induction

CC(=O)Nc1ccc(O)cc1 [acetaminophen]
effect of glutathione depletion by BSO on cytotoxicity (HepG2 cells; 100 μM BSO, Hep-3A4 and Hep-mock cells): significant sensitisation
additional CYP3A4 related cytotoxic effect under glutathione depletion (HepG2 cells; 100 μM BSO, Hep-3A4 vs Hep-mock, at the concentrations used): no apparent additional CYP3A4 related cytotoxic effect
cell viability (ATP depletion assay) (HepG2 cells; Hep-3A4 and Hep-mock cells): dose-dependent decrease in cell viability
concentration at which CYP3A4-related toxic activation was observed (HepG2 cells; Hep-3A4 vs Hep-mock): 10 mM

CC/C(=C(\c1ccccc1)c1ccc(OCCN(C)C)cc1)c1ccccc1 [tamoxifen]
cell viability (ATP depletion assay) (HepG2 cells; Hep-3A4 and Hep-mock cells): dose-dependent decrease in cell viability
cell viability (ATP depletion assay) [2]: dose-dependent decrease in cell viability
